Measured values from ChEMBL document CHEMBL4808179 (Bioorg Med Chem Lett, 2021).
Values after ≈ are worked out from the molar mass of the structure shown.

Key:
Staphylococcus aureus [1] = assay: Antibacterial activity against methicillin-resistant Staphylococcus aureus USA300 assessed as bacterial growth inhibition; format: functional
Staphylococcus aureus [2] = assay: Antibacterial activity against methicillin-resistant Staphylococcus aureus HS-663 assessed as bacterial growth inhibition; format: functional
Staphylococcus aureus [3] = assay: Antibacterial activity against vancomycin-intermediate Staphylococcus aureus Mu50 assessed as bacterial growth inhibition; format: functional
Staphylococcus aureus [4] = assay: Antibacterial activity against methicillin-susceptible Staphylococcus aureus Newman assessed as bacterial growth inhibition; format: functional
Escherichia coli = assay: Antibacterial activity against Escherichia coli AB1157 assessed as bacterial growth inhibition; format: functional
Acinetobacter baumannii = assay: Antibacterial activity against Acinetobacter baumannii assessed as bacterial growth inhibition; format: functional
Enterococcus faecium [5] = assay: Antibacterial activity against vancomycin resistant Enterococcus faecium Van A HS-0649 assessed as inhibition of bacterial growth; format: functional
Enterococcus faecium [6] = assay: Antibacterial activity against vancomycin resistant Enterococcus faecium Van A HS-06188 assessed as inhibition of bacterial growth; format: functional
Enterococcus faecium [7] = assay: Antibacterial activity against vancomycin resistant Enterococcus faecium Van M HS-0847 assessed as inhibition of bacterial growth; format: functional
Enterococcus faecium [8] = assay: Antibacterial activity against vancomycin resistant Enterococcus faecium Van M HS-08267 assessed as inhibition of bacterial growth; format: functional
Enterococcus faecium [9] = assay: Antibacterial activity against vancomycin resistant Enterococcus faecium Van B V(R) assessed as inhibition of bacterial growth; format: functional
L02 = assay: Cytotoxicity against human L02 cells assessed as reduction in cell viability >= 12.5 uM; format: cell-based
Enterococcus faecium [10] = assay: Potency index, ratio of Vancomycin MIC to test compound MIC for antibacterial activity against vancomycin resistant Enterococcus faecium Van A HS-06188 assessed as inhibition of bacterial growth; format: functional
Enterococcus faecium [11] = assay: Potency index, ratio of Vancomycin MIC to test compound MIC for antibacterial activity against vancomycin resistant Enterococcus faecium Van M HS-0847 assessed as inhibition of bacterial growth; format: functional
Enterococcus faecium [12] = assay: Potency index, ratio of Vancomycin MIC to test compound MIC for antibacterial activity against vancomycin resistant Enterococcus faecium Van M HS-08267 assessed as inhibition of bacterial growth; format: functional
Enterococcus faecium [13] = assay: Potency index, ratio of Vancomycin MIC to test compound MIC for antibacterial activity against vancomycin resistant Enterococcus faecium Van B V(R) assessed as inhibition of bacterial growth; format: functional

SMILES: CN[C@H](CC(C)C)C(=O)N[C@H]1C(=O)N[C@@H](CC(N)=O)C(=O)N[C@H]2C(=O)N[C@H]3C(=O)N[C@H](C(=O)N[C@H](C(=O)N[C@@H](CS)C(=O)O)c4cc(O)cc(O)c4-c4cc3ccc4O)[C@H](O)c3ccc(c(Cl)c3)Oc3cc2cc(c3O[C@@H]2O[C@H](CO)[C@@H](O)[C@H](O)[C@H]2O[C@H]2C[C@](C)(N)[C@H](O)[C@H](C)O2)Oc2ccc(cc2Cl)[C@H]1O
- MIC (Staphylococcus aureus [1]): 32 µg/mL (≈ 20.6 µM)
- MIC (Staphylococcus aureus [2]): 2 µg/mL (≈ 1.29 µM)
- MIC (Staphylococcus aureus [3]): 128 µg/mL (≈ 82.5 µM)
- MIC (Staphylococcus aureus [4]): 64 µg/mL (≈ 41.2 µM)
- MIC (Escherichia coli): > 128 µg/mL
- MIC (Acinetobacter baumannii): > 128 µg/mL
- MIC (Enterococcus faecium [5]): > 128 µg/mL
- MIC (Enterococcus faecium [6]): 16 µg/mL (≈ 10.3 µM)
- MIC (Enterococcus faecium [7]): 8 µg/mL (≈ 5.15 µM)
- MIC (Enterococcus faecium [8]): 8 µg/mL (≈ 5.15 µM)
- MIC (Enterococcus faecium [9]): 8 µg/mL (≈ 5.15 µM)
- Activity (L02): Toxic
- Ratio (Enterococcus faecium [10]): 8
- Ratio (Enterococcus faecium [11]): 8
- Ratio (Enterococcus faecium [12]): 8
- Ratio (Enterococcus faecium [13]): 8

SMILES: CN[C@H](CC(C)C)C(=O)N[C@H]1C(=O)N[C@@H](CC(N)=O)C(=O)N[C@H]2C(=O)N[C@H]3C(=O)N[C@H](C(=O)N[C@H](C(=O)N[C@@H](CS)C(=O)N[C@@H](CCCNC(=N)N)C(=O)N[C@@H](CCCCN)C(=O)N[C@H](C(=O)N[C@@H](CCCNC(=N)N)C(=O)NCC(=O)N4CCC[C@H]4C(=O)N4CCC[C@H]4C(=O)O)C(C)C)c4cc(O)cc(O)c4-c4cc3ccc4O)[C@H](O)c3ccc(c(Cl)c3)Oc3cc2cc(c3O[C@@H]2O[C@H](CO)[C@@H](O)[C@H](O)[C@H]2O[C@H]2C[C@](C)(N)[C@H](O)[C@H](C)O2)Oc2ccc(cc2Cl)[C@H]1O
- MIC (Staphylococcus aureus [1]): 16 µg/mL (≈ 6.83 µM)
- MIC (Staphylococcus aureus [2]): 16 µg/mL (≈ 6.83 µM)
- MIC (Staphylococcus aureus [3]): 64 µg/mL (≈ 27.3 µM)
- MIC (Staphylococcus aureus [4]): 32 µg/mL (≈ 13.7 µM)
- MIC (Escherichia coli): > 128 µg/mL
- MIC (Acinetobacter baumannii): > 128 µg/mL
- MIC (Enterococcus faecium [6]): 16 µg/mL (≈ 6.83 µM)
- MIC (Enterococcus faecium [7]): 32 µg/mL (≈ 13.7 µM)
- MIC (Enterococcus faecium [8]): 32 µg/mL (≈ 13.7 µM)
- MIC (Enterococcus faecium [9]): 16 µg/mL (≈ 6.83 µM)

SMILES: CC[C@H](C)[C@H](NC(=O)[C@H](CCCCN)NC(=O)[C@@H](NC(=O)[C@H](CC(N)=O)NC(=O)[C@H](CS)NC(=O)[C@H]1NC(=O)[C@H]2NC(=O)[C@H](NC(=O)[C@@H]3NC(=O)[C@H](CC(N)=O)NC(=O)[C@H](NC(=O)[C@@H](CC(C)C)NC)[C@H](O)c4ccc(c(Cl)c4)Oc4cc3cc(c4O[C@@H]3O[C@H](CO)[C@@H](O)[C@H](O)[C@H]3O[C@H]3C[C@](C)(N)[C@H](O)[C@H](C)O3)Oc3ccc(cc3Cl)[C@H]2O)c2ccc(O)c(c2)-c2c(O)cc(O)cc21)[C@@H](C)CC)C(=O)N[C@@H](CO)C(=O)NCC(=O)N[C@@H](CCCCN)C(=O)N[C@@H](Cc1c[nH]c2ccccc12)C(=O)N[C@@H](CCCCN)C(=O)N[C@@H](C)C(=O)N[C@@H](CCC(N)=O)C(=O)N[C@@H](CCCCN)C(=O)N[C@@H](CCCNC(=N)N)C(=O)N[C@@H](Cc1ccccc1)C(=O)N[C@@H](CC(C)C)C(=O)O
- MIC (Staphylococcus aureus [1]): 32 µg/mL (≈ 9.55 µM)
- MIC (Staphylococcus aureus [2]): 16 µg/mL (≈ 4.77 µM)
- MIC (Staphylococcus aureus [3]): 32 µg/mL (≈ 9.55 µM)
- MIC (Staphylococcus aureus [4]): 32 µg/mL (≈ 9.55 µM)
- MIC (Escherichia coli): > 128 µg/mL
- MIC (Acinetobacter baumannii): > 128 µg/mL
- MIC (Enterococcus faecium [6]): 64 µg/mL (≈ 19.1 µM)
- MIC (Enterococcus faecium [7]): 32 µg/mL (≈ 9.55 µM)
- MIC (Enterococcus faecium [8]): 32 µg/mL (≈ 9.55 µM)
- MIC (Enterococcus faecium [9]): 32 µg/mL (≈ 9.55 µM)

SMILES: CN[C@H](CC(C)C)C(=O)N[C@H]1C(=O)N[C@@H](CC(N)=O)C(=O)N[C@H]2C(=O)N[C@H]3C(=O)N[C@H](C(=O)N[C@H](C(=O)N/N=C/c4ccccc4)c4cc(O)cc(O)c4-c4cc3ccc4O)[C@H](O)c3ccc(c(Cl)c3)Oc3cc2cc(c3O[C@@H]2O[C@H](CO)[C@@H](O)[C@H](O)[C@H]2O[C@H]2C[C@](C)(N)[C@H](O)[C@H](C)O2)Oc2ccc(cc2Cl)[C@H]1O
- MIC (Staphylococcus aureus [1]): 2 µg/mL (≈ 1.29 µM)
- MIC (Staphylococcus aureus [2]): 0.5 µg/mL (≈ 0.322 µM)
- MIC (Staphylococcus aureus [3]): 16 µg/mL (≈ 10.3 µM)
- MIC (Staphylococcus aureus [4]): 2 µg/mL (≈ 1.29 µM)
- MIC (Escherichia coli): > 128 µg/mL
- MIC (Acinetobacter baumannii): > 128 µg/mL
- MIC (Enterococcus faecium [5]): 128 µg/mL (≈ 82.5 µM)
- MIC (Enterococcus faecium [6]): 128 µg/mL (≈ 82.5 µM)
- MIC (Enterococcus faecium [7]): 64 µg/mL (≈ 41.3 µM)
- MIC (Enterococcus faecium [8]): 64 µg/mL (≈ 41.3 µM)
- MIC (Enterococcus faecium [9]): 128 µg/mL (≈ 82.5 µM)
- Activity (L02): Toxic

SMILES: CN[C@H](CC(C)C)C(=O)N[C@H]1C(=O)N[C@@H](CC(N)=O)C(=O)N[C@H]2C(=O)N[C@H]3C(=O)N[C@H](C(=O)N[C@H](C(=O)N[C@@H](CCCNC(=N)N)C(=O)O)c4cc(O)cc(O)c4-c4cc3ccc4O)[C@H](O)c3ccc(c(Cl)c3)Oc3cc2cc(c3O[C@@H]2O[C@H](CO)[C@@H](O)[C@H](O)[C@H]2O[C@H]2C[C@](C)(N)[C@H](O)[C@H](C)O2)Oc2ccc(cc2Cl)[C@H]1O
- MIC (Staphylococcus aureus [1]): 4 µg/mL (≈ 2.49 µM)
- MIC (Staphylococcus aureus [2]): 0.5 µg/mL (≈ 0.311 µM)
- MIC (Staphylococcus aureus [3]): 64 µg/mL (≈ 39.9 µM)
- MIC (Staphylococcus aureus [4]): 8 µg/mL (≈ 4.98 µM)
- MIC (Escherichia coli): > 128 µg/mL
- MIC (Acinetobacter baumannii): > 128 µg/mL
- MIC (Enterococcus faecium [5]): > 128 µg/mL
- MIC (Enterococcus faecium [6]): 128 µg/mL (≈ 79.7 µM)
- MIC (Enterococcus faecium [7]): 128 µg/mL (≈ 79.7 µM)
- MIC (Enterococcus faecium [8]): 128 µg/mL (≈ 79.7 µM)
- MIC (Enterococcus faecium [9]): 64 µg/mL (≈ 39.9 µM)
- Activity (L02): Toxic

SMILES: CN[C@H](CC(C)C)C(=O)N[C@H]1C(=O)N[C@@H](CC(N)=O)C(=O)N[C@H]2C(=O)N[C@H]3C(=O)N[C@H](C(=O)N[C@H](C(=O)N/N=C/c4ccc(-c5ccc(C(F)(F)F)cc5)cc4)c4cc(O)cc(O)c4-c4cc3ccc4O)[C@H](O)c3ccc(c(Cl)c3)Oc3cc2cc(c3O[C@@H]2O[C@H](CO)[C@@H](O)[C@H](O)[C@H]2O[C@H]2C[C@](C)(N)[C@H](O)[C@H](C)O2)Oc2ccc(cc2Cl)[C@H]1O
- MIC (Staphylococcus aureus [1]): 0.5 µg/mL (≈ 0.295 µM)
- MIC (Staphylococcus aureus [2]): 0.0625 µg/mL (≈ 0.0369 µM)
- MIC (Staphylococcus aureus [3]): 2 µg/mL (≈ 1.18 µM)
- MIC (Staphylococcus aureus [4]): 1 µg/mL (≈ 0.59 µM)
- MIC (Escherichia coli): > 128 µg/mL
- MIC (Acinetobacter baumannii): > 128 µg/mL
- MIC (Enterococcus faecium [5]): 4 µg/mL (≈ 2.36 µM)
- MIC (Enterococcus faecium [6]): 4 µg/mL (≈ 2.36 µM)
- MIC (Enterococcus faecium [7]): 4 µg/mL (≈ 2.36 µM)
- MIC (Enterococcus faecium [8]): 2 µg/mL (≈ 1.18 µM)
- MIC (Enterococcus faecium [9]): 1 µg/mL (≈ 0.59 µM)
- Ratio (Enterococcus faecium [10]): 8
- Ratio (Enterococcus faecium [11]): 8
- Ratio (Enterococcus faecium [12]): 8
- Ratio (Enterococcus faecium [13]): 8
